For series [1], the system named is male C57bl/6 mice. The series can be described thus: Sciatic nerve denervation muscle wasting model. The following applies: 75 mg/kg IP twice daily. The class given is in vivo, mouse. The method, then:
To induce muscle wasting, a 1 cm segment of the sciatic nerve in the thigh was removed from mice (male C57bl/6 mice at 8-10 weeks of age; n=10 per group) under isoflurane anaesthesia and analgesia with carprofen. A sham operation was carried out in the opposite leg as a control.
Mice were randomised into Vehicle or Test groups, with all animals weighed to ensure a similar mean weight in each group. ADC-141, a USP19 inhibitory compound at 75 mg/kg or Vehicle was administered IP twice daily starting from the evening post-operation.
Mice were sacrificed 14 days later. Fat pads, liver, gastrocnemius and tibialis anterior muscles were harvested. Tissue mass were measured in both groups.

Series [2] relates to diet-induced obese (DIO) mouse. The series can be described thus: Diet-induced obesity (DIO) mouse model with OGTT. Format: in vivo, Male C57BL6/J mice. The following applies: 5 or 25 mg/kg i.p. BID. The method, then:
To assess obesity and insulin resistance, a diet-induced obesity mouse model was used.
Male C57BL6/J mice were continuously provided with high-fat diet (D12451, 45% kcal as fat; Research Diets, New Jersey, USA) and filtered tap water ad libitum for the duration of the study. From day 0, mice were administered vehicle i.p. BID, USP19 inhibitor (ADC-141) i.p. BID at 5 mg/kg or 25 mg/kg, or positive control liraglutide 0.1 mg/kg s.c. BID.
Body weight was measured daily. On Day 13, body composition was be assessed by DEXA. On Day 15, fasting glucose and insulin levels were measured before and during an oral glucose tolerance test (OGTT) to assess improvements in glucose control. The OGTT was performed following an overnight fast. […] An OGTT was performed the following morning (approx. 16 h post fast). Mice were dosed with vehicle or test compound (starting at 08.45) to a timed schedule 30 minutes prior to the administration of the glucose challenge (2.0 g/kg po). Blood samples were taken immediately prior to dosing (B1), immediately prior to glucose administration (B2) and 15, 30, 60 and 120 minutes after glucose administration.

For series [3], the target named is T1, Full-length USP19 (Homo sapiens, UniProt O94966).
T1 construct: Full-length USP19 was purchased from Boston Biochem (E-576); purchased Boston Biochem E-576
T1 sequence (O94966 1-1318): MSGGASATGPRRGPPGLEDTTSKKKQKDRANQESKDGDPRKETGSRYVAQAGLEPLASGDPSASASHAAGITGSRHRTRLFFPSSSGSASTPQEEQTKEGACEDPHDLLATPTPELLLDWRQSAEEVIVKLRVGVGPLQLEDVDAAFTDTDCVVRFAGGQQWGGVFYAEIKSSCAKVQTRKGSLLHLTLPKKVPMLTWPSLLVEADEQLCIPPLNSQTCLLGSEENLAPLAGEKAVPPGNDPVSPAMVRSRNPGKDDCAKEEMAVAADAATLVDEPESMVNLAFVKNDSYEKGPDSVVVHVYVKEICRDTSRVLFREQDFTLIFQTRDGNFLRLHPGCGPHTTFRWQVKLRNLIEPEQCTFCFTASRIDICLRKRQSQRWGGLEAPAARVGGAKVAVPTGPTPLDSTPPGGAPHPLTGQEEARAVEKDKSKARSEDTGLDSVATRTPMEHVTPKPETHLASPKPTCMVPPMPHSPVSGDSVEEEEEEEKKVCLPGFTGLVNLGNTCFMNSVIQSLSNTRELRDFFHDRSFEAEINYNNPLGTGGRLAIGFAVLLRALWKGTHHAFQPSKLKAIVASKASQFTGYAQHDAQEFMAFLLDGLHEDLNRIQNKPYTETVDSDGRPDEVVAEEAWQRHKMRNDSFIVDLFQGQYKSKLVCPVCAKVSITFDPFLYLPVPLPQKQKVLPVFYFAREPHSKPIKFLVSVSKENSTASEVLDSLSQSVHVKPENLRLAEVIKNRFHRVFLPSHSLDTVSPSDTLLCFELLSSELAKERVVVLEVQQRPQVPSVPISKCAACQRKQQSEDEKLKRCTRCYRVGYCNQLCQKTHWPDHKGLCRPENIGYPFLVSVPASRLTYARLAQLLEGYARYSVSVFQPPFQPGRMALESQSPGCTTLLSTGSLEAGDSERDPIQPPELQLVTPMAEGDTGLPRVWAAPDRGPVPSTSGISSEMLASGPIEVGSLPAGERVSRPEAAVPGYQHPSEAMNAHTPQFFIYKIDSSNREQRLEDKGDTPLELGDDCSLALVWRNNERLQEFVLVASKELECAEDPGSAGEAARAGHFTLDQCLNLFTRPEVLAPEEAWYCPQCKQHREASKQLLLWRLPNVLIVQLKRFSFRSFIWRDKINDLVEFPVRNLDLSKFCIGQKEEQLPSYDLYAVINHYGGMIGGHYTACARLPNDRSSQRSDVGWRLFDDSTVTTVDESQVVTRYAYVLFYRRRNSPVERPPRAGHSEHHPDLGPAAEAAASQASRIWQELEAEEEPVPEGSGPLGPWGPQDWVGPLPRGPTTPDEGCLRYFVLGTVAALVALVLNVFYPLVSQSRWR
Put plainly: USP19 fluorescence polarisation (FP) assay, Ubiquitin-Lys-TAMRA substrate. The class given is biochemical. The following applies: for pIC50: average of at least two duplicate experiments. A digest of the protocol: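 Full-length human USP19 (added at 2.5 nM) was preincubated 30 min at RT with inhibitor (serial dilutions 200 μM to 2 μM) in 50 mM HEPES pH 7.4, 150 mM NaCl, 5 mM DTT, 0.05% BSA, 0.05% CHAPS. Ubiquitin-Lys-TAMRA isopeptide substrate (added at 500 nM) started the reaction, and FP (Ex 530/Em 575 nm) was read every 15 min over 90 min. IC50 came from non-linear regression of signal normalised to no-compound control, averaged over at least two duplicate experiments.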

Series [4] relates to USP19. The series can be described thus: Cellular target engagement using western blotting (Ub-PA / Ub-VME probe). Format: cell-based. The following applies: breast cancer, neuroblastoma and mouse skeletal muscle cell lines. The method, then:
Cells from a breast cancer cell line, a neuroblastoma cell line and a mouse skeletal muscle cell line were treated with a USP19 inhibitor compound (ADC-141) for 2 hrs, lysed (lysis buffer: 50 mM Tris pH 7.4; 150 mM NaCl; 5 mM MgCl2; 0.5 mM EDTA; 0.5% NP40; 10% Glycerol; 2 mM DTT) and Ubiquitin-propargylamine (Ub-PA; UbiQ) or Ubiquitin-vinyl methyl ester (Ub-VME; Almac Sciences Scotland Limited) was then added. Samples were analysed by western blotting probing for USP19 (EC50 determined by densitometry).
For orientation: Immunoblotting shows a protein as a band on a membrane.

Series [5] concerns the target T2, USP19 (Homo sapiens, UniProt O94966).
T2 construct: expressed in transfected cells; host or cells: HEK293T
T2 sequence (O94966 1-1318): T1 sequence (O94966 1-1318)
The series can be described thus: Cellular target engagement using HTRF assay (USP19-Flag transfected cells). The class given is cell-based. The following applies: HEK293T cells; read-out: HTRF TE IC50. The method, then:
USP19 cellular target engagement was determined in a homogenous time resolved fluorescence (HTRF) assay using HA-tagged ubiquitin vinyl pentynyl sulfone (VPS) probe (UbiQ-193, UbiQ Bio) and a USP19-Flag overexpression construct. Inhibitors were stored as 10 mM DMSO stocks in an inert environment (low humidity, dark, low oxygen, rt) using the StoragePod® system (Roylan Developments). USP19-Flag transfected cells were incubated with serially diluted compound in an 11 point dose response curve (from 50 μM to 0.01 nM) for 2 h and then washed in PBS and lysed. Unless otherwise stated, all HTRF reagents were purchased from CisBio. HTRF assays using cell lysates were completed in 384 well plates (Greiner) in a 20 μL total volume. Cell lysates were incubated with HA-tagged ubiquitin VPS probe for 40 min in PPI detection buffer prior to addition of anti-HA and anti-FLAG HTRF detection reagents. HTRF was measured every 1 h for 18 h using a Pherastar FSX plate reader (excitation of 337 nm, emission of 620/665 nm). Data was normalised to DMSO (no compound controls) and fitted using IC50 values derived using Prism (GraphPad) using nonlinear regression curve fitting.

Series [6] is described as follows: Caco-2 permeability assay. Format: in vitro ADME. The following applies: human, apical to basolateral (A:B), read-out: caco-2 Papp AB. The method, then:
Caco-2 cells are commonly used as an in vitro model for the prediction of human intestinal absorption of test compounds. When cultured, Caco-2 cells (derived from a human colorectal carcinoma) spontaneously differentiate into monolayers of polarised enterocytes. The cells are seeded on multiwell-insert plates and form a confluent monolayer over 20 d before the assay. On day 20, compound was added to the apical side of the membrane and the flux of the compound across the monolayer was monitored over 2 h. All data was generated at Cyptotex.
A general note: Caco-2 monolayers are a common model of the intestinal barrier.

pIC50: −log10 of the molar value. Counter-ions that a name gives are not always drawn.

As usually defined, the pIC50 is −log10 of the IC50, conventionally taken in molar units.

Regarding `C[C@H](CC1CCCCC1)C(=O)N1CC[C@@](O)(Cn2cc(C(=O)N3CCNCC3)c(-c3ccccc3)cc2=O)C2(CCCC2)C1` [ADC-141, 1-(((S)-7-((R)-3-cyclohexyl-2-methylpropanoyl)-10-hydroxy-7-azaspiro[4.5]decan-10-yl)methyl)-4-phenyl-5-(piperazine-1-carbonyl)pyridin-2(1H)-one], in series [1] (2 weeks, vs vehicle), the liver mass result is listed as “increase in liver mass” and the “mass of the epididymal fat pad” value is listed as “significantly smaller fat pads”. The “muscle wasting in the gastrocnemius muscle” value in series [1] (14 days, trend did not reach significance) was “reduced”. Moreover, the “loss of muscle mass in the tibialis anterior muscle” value in series [1] (14 days, vs vehicle) is listed as “significantly lower loss of muscle mass”. In series [2] (DEXA Day 13), the fat mass entry is on record as “reduction in fat mass” and the lean body mass entry is “preserved”. For the same molecule, in series [2] (Day 15), the “plasma glucose in OGTT” value is “decreased plasma glucose” and the “plasma insulin in OGTT” value was “decreased plasma insulin”. In addition, the OGTT response result in series [2] (Day 15, glucose 2.0 g/kg po) was “dose-dependent improvement in OGTT response”. Moreover, in series [2] (high-fat diet), the “overall body weight gain” value is recorded as “reduction in overall body weight gain”. Also, in series [2] (vs vehicle control), the cumulative food intake result was “reduction in cumulative food intake”. In addition, the USP19 inhibitory activity result in series [3] (fluorescence polarisation assay, qualitative) is “shown to have USP19 inhibitory activity”. The cell permeability result in series [4] was “good cell permeability”. In addition, the “EC50 determined by densitometry” value in series [4] (2 hrs treatment) is listed as “low nanomolar”.

As to `O=C(N1CC[C@@H](Cn2cnc(-c3ccccc3)cc2=O)C2(CCCC2)C1)N1CCNC[C@H]1c1ccccc1`, the pIC50 in series [5] is 6.00. Also, in series [6], the Papp A→B at 2 h is 1 ×10⁻⁶ cm/s.

Turning to `CCN[C@@H]1CCN(C(=O)N2CC[C@@H](Cn3cnc(-c4ccccc4)cc3=O)C3(CCCC3)C2)[C@H](c2ccccc2)C1` [Example 62, 3-(((R)-7-((2S,4R)-4-(Ethylamino)-2-phenylpiperidine-1-carbonyl)-7-azaspiro[4.5]decan-10-yl)methyl)-6-phenylpyrimidin-4(3H)-one], in series [3], the pIC50 is above 8.00.

For the molecule `N[C@@H]1CCN(C(=O)N2CC[C@@H](Cn3ccc(-c4ccccc4)cc3=O)C3(CCCC3)C2)[C@H](c2cc(F)ccc2F)C1` [Example 87, 1-(((R)-7-((2S,4R)-4-Amino-2-(2,5-difluorophenyl)piperidine-1-carbonyl)-7-azaspiro[4.5]decan-10-yl)methyl)-4-phenylpyridin-2(1H)-one], the pIC50 in series [3] was above 8.00.

For the molecule `N[C@@H]1CCN(C(=O)N2CC[C@@H](Cn3cnc4ccc(F)cc4c3=O)C3(CCCC3)C2)[C@H](c2cc(F)cc(F)c2)C1` [Example 181, 3-(((R)-7-((2S,4R)-4-Amino-2-(3,5-difluorophenyl)piperidine-1-carbonyl)-7-azaspiro[4.5]decan-10-yl)methyl)-6-fluoroquinazolin-4(3H)-one hydrochloride], the pIC50 in series [3] was above 8.00.

As to `CN[C@@H]1CCN(C(=O)N2CC[C@@H](Cn3cnc4ccc(F)cc4c3=O)C3(CCCC3)C2)[C@H](c2cccc(F)c2F)C1` [Example 166, 3-(((R)-7-((2S,4R)-2-(2,3-Difluorophenyl)-4-(methylamino)piperidine-1-carbonyl)-7-azaspiro[4.5]decan-10-yl)methyl)-6-fluoroquinazolin-4(3H)-one], the pIC50 in series [3] is above 8.00.

Turning to `O=C(N1CC[C@@H](Cn2cnc(-c3ccccc3)cc2=O)C2(CCCC2)C1)N1CC[C@@H](NCc2ccccn2)C[C@H]1c1ccccc1` [Example 144, 6-Phenyl-3-(((R)-7-((2S,4R)-2-phenyl-4-((pyridin-2-ylmethyl)amino)piperidine-1-carbonyl)-7-azaspiro[4.5]decan-10-yl)methyl)pyrimidin-4(3H)-one], the pIC50 in series [3] is above 8.00.

Source of the values: patent US20240327382A1 (ALMAC DISCOVERY LIMITED, priority 2021, published 2024).
